In data set [1] the test system is thrombin-induced platelet aggregation. Put plainly: Platelet aggregation induced by thrombin (turbidimetric, washed platelet suspension). In kind it is cell-based, rabbit. As to conditions: for IC50: rabbit platelets incubated with test compound at 37° C. for 1 min, then thrombin (0.1 unit/mL); for inhibition of thrombin-induced platelet aggregation (in words): discussion of Table 1. Here is the method:
(§1) Collagen (type 1, bovine Achilles tendon), obtained from Sigma Chemical Co., was homogenized in […] HOAc and stored at −70° C. Arachidonic acid, bovine serum albumin (BSA), EDTA (disodium salt), sodium citrate, dimethyl sulfoxide (DMSO), and platelet activating factor (PAF) were purchased from Sigma Chemical Co. Thrombin (bovine) was obtained from Parke-Davis Co. and dissolved in 50% (viv) glycerol to give a stock solution of 100 NIH units/mL.
(§2) Blood was collected from the rabbit marginal ear vein and was mixed with EDTA to a final concentration of 6 mM. It was centrifuged at 90 g for 10 min at room temperature, and the supernatant was obtained as platelet-rich plasma. The latter was further centrifuged at 500 g for 10 min. The platelet pellets were washed with Tyrode's solution without EDTA. After centrifugation at the same conditions, the platelet pellets were finally suspended in Tyrode's solution of the following composition (mM): NaCl (136.8), KCl (2.81, NaHCO3 (11.9), MgCl2 (1.1), NaH2PO4 (0.33), CaCl2 (1.0), and glucose (11.2). Platelet numbers were counted by Coulter Counter (Model ZM) and adjusted to 4.5×10^8 […].
(§3) Aggregation was measured by the turbidmetric method with a dual-channel Lumiaggregometer (Model 1020, Payton, Canada). All glassware was siliconized. One minute before the addition of the aggregation inducer, the platelet suspension was stirred at 900 rpm. The percentage of aggregation was calculated as described previously.

In data set [2] the test system is AA-induced platelet aggregation. Put plainly: Platelet aggregation induced by AA (turbidimetric, washed platelet suspension). The class given is cell-based, rabbit. As to conditions: for IC50: rabbit platelets incubated with test compound at 37° C. for 1 min, then AA (100 μM); for inhibition of AA-induced platelet aggregation (in words): discussion of Table 1. As for the experimental part: as §1, §2, §3

The subject of data set [3] is collagen-induced platelet aggregation. Put plainly: Platelet aggregation induced by collagen (turbidimetric, washed platelet suspension). The settings on record: for IC50: rabbit platelets incubated with test compound at 37° C. for 1 min, then collagen (10 μg/mL); for inhibition of collagen-induced platelet aggregation (in words): discussion of Table 1. The class given is cell-based, rabbit. Here is the method: as §1, §2, §3

The subject of data set [4] is PAF-induced platelet aggregation. Put plainly: Platelet aggregation induced by PAF (turbidimetric, washed platelet suspension). In kind it is cell-based, rabbit. As to conditions: for IC50: rabbit platelets incubated with test compound at 37° C. for 1 min, then PAF (2 ng/mL); for inhibition of PAF-induced platelet aggregation (in words): discussion of Table 1. As for the experimental part:
as §1, §2, §3

For a further data set, the system named is platelet aggregation. Put plainly: Antiplatelet aggregation activity, overall statements over the four inducers. The settings on record: discussion of Table 1, all inducers. In kind it is cell-based, rabbit. As for the experimental part:
as §1, §2, §3

The mark [5] stands for this setting: Oryctolagus cuniculus, Platelet, 1 min.

In the case of `OCc1ccc(-c2nn(Cc3ccccc3)c3ccccc23)cc1` [YD-1, 1-benzyl-3-(4-hydroxymethylphenyl)indazole, reference compound], the IC50 in data set [1] (setting [5]) is 193 µM; in data set [2] (setting [5]) it was 101 µM; in data set [3] (setting [5]) it was 123 µM; in data set [4] (setting [5]) it was 143 µM.

As for `OCc1ccc(-c2cn(Cc3ccccc3)c3ccccc23)o1` [Compound 7, N-Benzyl-3-(5′-hydroxymethyl-2′-furyl)indole], the IC50 in data set [1], in data set [2], in data set [3] and in data set [4] was over 300 µM in each case. In addition, the “anti-platelet activity overall (in words)” value in the data set on platelet aggregation is “nearly no anti-platelet activity”.

With `OCc1ccc(-c2cn(Cc3ccccc3)c3ccccc23)cc1` [Compound 10, N-Benzyl-3-(4-hydroxymethylphenyl)indole], the melting point was 122 °C. The same compound registered an IC50 in data set [1] (setting [5]) of over 300 µM. Also, the IC50 in data set [2] (setting [5]) is over 300 µM. In data set [3] (setting [5]), this compound came in with an IC50 of 168 µM. Further, the “inhibition of collagen-induced platelet aggregation (in words)” value in data set [3] is reported as “inhibited”. The IC50 in data set [4] (setting [5]) came to 170 µM. In addition, the “inhibition of PAF-induced platelet aggregation (in words)” value in data set [4] was “inhibited”.

Consider `OCc1ccc(-c2nn(Cc3ccccc3)c3ccccc23)o1` [YC-1, 1-benzyl-3-(5′-hydroxymethyl-2′-furyl)indazole], for which the IC50 turned out to be 180 µM in data set [1] (setting [5]), 57 µM in data set [2] (setting [5]), 54.6 µM in data set [3] (setting [5]) and 90 µM in data set [4] (setting [5]).

As to `OCc1ccc(-c2cn(Cc3ccccc3)c3ccccc23)s1` [Compound 8, N-Benzyl-3-(5′-hydroxymethyl-2′-thienyl)indole], the IC50 in data set [1], in data set [2], in data set [3] and in data set [4] was over 300 µM throughout. Besides, the “anti-platelet activity overall (in words)” value with platelet aggregation is “did not improve its activity”.

As for `O=C(c1ccccc1)n1cc(-c2ccc(CO)o2)c2ccccc21` [Compound 32, N-Benzoyl-3-(5′-hydroxymethyl-2′-furyl)indole], in data set [1], the “inhibition of thrombin-induced platelet aggregation (in words)” value is “inefficient” and the IC50 was over 300 µM. In data set [2], the “inhibition of AA-induced platelet aggregation (in words)” value was “excellent inhibitory activity” and the IC50 was 38.2 µM. Moreover, in data set [3], the “inhibition of collagen-induced platelet aggregation (in words)” value is reported as “excellent inhibitory activity” and the IC50 came to 51.1 µM. Also, in data set [4], the “inhibition of PAF-induced platelet aggregation (in words)” value is “inefficient” and the IC50 was over 300 µM.

For `O=S(=O)(c1ccccc1)n1cc(-c2ccc(CO)o2)c2ccccc21` [Compound 16, N-Benzenesulfonyl-3-(5′-hydroxymethyl-2′-furyl)indole], in data set [1], the “inhibition of thrombin-induced platelet aggregation (in words)” value is “significant inhibition” and the half-maximal inhibitory concentration (IC50) was 173 µM. Besides, in data set [2], the “inhibition of AA-induced platelet aggregation (in words)” value is “significant inhibition” and it took 94.9 µM to reach half-maximal inhibition (IC50). Moreover, in data set [3], the “inhibition of collagen-induced platelet aggregation (in words)” value is “significant inhibition” and half-maximal inhibition (IC50) was put at 73.7 µM. For the same compound, in data set [4], the “inhibition of PAF-induced platelet aggregation (in words)” value is listed as “significant inhibition” and the IC50 is 164 µM.

As for `COc1cccc(C(=O)n2cc(-c3ccc(CO)o3)c3ccccc32)c1` [Compound 33, N-(3′-Methoxybenzoyl)-3-(5′-hydroxymethyl-2′-furyl)indole], in data set [1], the “inhibition of thrombin-induced platelet aggregation (in words)” value was “significant inhibition” and the IC50 is 175 µM. In data set [2], the “inhibition of AA-induced platelet aggregation (in words)” value is “significant inhibition” and half-maximal inhibition (IC50) was put at 90.9 µM. Moreover, in data set [3], the “inhibition of collagen-induced platelet aggregation (in words)” value is “significant inhibition” and it took 83.9 µM to reach half-maximal inhibition (IC50). Also, in data set [4], the “inhibition of PAF-induced platelet aggregation (in words)” value is “significant inhibition” and 169 µM corresponded to half-maximal inhibition (IC50). Besides, the “anti-platelet activity overall (in words)” value in the data set with platelet aggregation was “comparable with YC-1”.

As to `COc1ccc(C(=O)n2cc(-c3ccc(CO)o3)c3ccccc32)cc1` [Compound 34, N-(4′-Methoxybenzoyl)-3-(5′-hydroxymethyl-2′-furyl)indole], in data set [1], the “inhibition of thrombin-induced platelet aggregation (in words)” value is reported as “poor inhibition” and the IC50 is over 300 µM. Moreover, in data set [2], the “inhibition of AA-induced platelet aggregation (in words)” value is reported as “potent inhibition” and inhibition was half-maximal at 2.9 µM (IC50). In data set [3], the “inhibition of collagen-induced platelet aggregation (in words)” value was “potent inhibition” and inhibition was half-maximal at 30.9 µM (IC50). Moreover, in data set [4], the “inhibition of PAF-induced platelet aggregation (in words)” value is recorded as “poor inhibition” and the IC50 is 270 µM.

With `O=S(=O)(c1ccccc1)n1cc(-c2ccc(CO)s2)c2ccccc21` [Compound 17, N-Benzenesulfonyl-3-(5′-hydroxymethyl-2′-thienyl)indole], in data set [1], the “inhibition of thrombin-induced platelet aggregation (in words)” value is on record as “impaired its inhibitory activity” and the IC50 is over 300 µM. Further, in data set [2], the “inhibition of AA-induced platelet aggregation (in words)” value was “excellent inhibitory activity” and 154 µM corresponded to half-maximal inhibition (IC50). Besides, in data set [3], the “inhibition of collagen-induced platelet aggregation (in words)” value is given as “excellent inhibitory activity” and the IC50 was found to be 131 µM. In data set [4], the “inhibition of PAF-induced platelet aggregation (in words)” value was “excellent inhibitory activity” and the IC50 was 171 µM.

A word on the IC50: it is the point on the concentration scale where inhibition reaches its midpoint. One may read the melting point as the temperature, or range, at which the solid turns liquid.
